# Patent publication US5681826A, “Saccharide composition with reduced reducibility, and preparation and uses thereof” (Kabushiki Kaisha Hayashibara Seibutsu Kagaku Kenkyujo, priority 1994, dated 1997)
# Entries after “also recorded” stand apart in the source; their conditions may differ.
# What was measured:
# glucoamylase = test: Enzymatic hydrolysis by glucoamylase; type: biochemical
# Description: Fifty mg aliquots of non-reducing saccharide preparations P I, P II, P III, P IV and P V in Experiment 4 were respectively dissolved in one ml of 50 mM acetate buffer (pH 4.5), admixed with one unit of glucoamylase commercialized by Seikagaku-Kogyo Co., Ltd., Tokyo, Japan, to effect enzymatic hydrolysis at 40° C. for 6 hours. HPLC analysis only detected glucose and trehalose in all resultant mixtures. The percentages and the molecular ratios of glucose to trehalose in each saccharide are in Table 5.
# in vivo = conditions: mouse, in vivo, po
# Description: (§1) By using 7-week old dd-strain mice, the non-reducing saccharide preparation P I, P II, P III, P IV or P V was orally administered to the mice for acute toxicity test.
# mice = test: Acute toxicity test (Experiment 8); conditions: oral, highest possible doses
# Description: as §1
# [1] = Reducing power on the Somogyi-Nelson's method expressed by DE; type: physicochemical; conditions: d.s.b.
# Description: The reducing powders of these novel high-purity saccharides were determined on the Somogyi-Nelson's method and expressed by DE.
# [2] = Hydrolysis by rat intestinal acetone powder; type: in vitro ADME; conditions: pH 6.0, 37°C., 18 hours
# Description: (§2) The enzymatic reaction with the α-amylase was as follows: Dissolve 10 mg of a substrate in one ml of 50 mM phosphate buffer (pH 6.9), mix the resultant solution with one unit of the α-amylase, and incubate the resultant mixture at 37° C. for 18 hours. The enzymatic reaction with the α-glucosidase was conducted under the same conditions as in the case of α-amylase except that 50 mM acetate buffer (pH 4.0) was used as a buffer. The enzymatic reaction using the rat intestinal acetone powder was carried out under the same conditions as in the case of α-amylase except that 50 mM maleate buffer (pH 6.0) was used as a buffer. The saccharide compositions obtained by the α-amylase, α-glucosidase and rat intestinal acetone powder are respectively in Tables 6, 7 and 8.
# α-glucosidase = test: Hydrolysis by α-glucosidase derived from rice; type: biochemical; conditions: pH 4.0, 37°C., 18 hours
# Description: as §2
# α-amylase = test: Hydrolysis by α-amylase derived from pig pancreas; type: in vitro ADME; conditions: one unit, pH 6.9, 37°C., 18 hours
# Description: as §2
# [3] = target: T1, trehalose-releasing enzyme (Rhizobium sp. M-11, UniProt Q53238); test: Action of trehalose-releasing enzyme on α-glycosyltrehalose and maltooligosaccharides (Table 13); type: biochemical; conditions: 20% substrate, 2 units/g, 40°C., pH 7.0, 48 hours; label = substrate
# T1 construct: M-11 culture
# T1 sequence (Q53238 1-596): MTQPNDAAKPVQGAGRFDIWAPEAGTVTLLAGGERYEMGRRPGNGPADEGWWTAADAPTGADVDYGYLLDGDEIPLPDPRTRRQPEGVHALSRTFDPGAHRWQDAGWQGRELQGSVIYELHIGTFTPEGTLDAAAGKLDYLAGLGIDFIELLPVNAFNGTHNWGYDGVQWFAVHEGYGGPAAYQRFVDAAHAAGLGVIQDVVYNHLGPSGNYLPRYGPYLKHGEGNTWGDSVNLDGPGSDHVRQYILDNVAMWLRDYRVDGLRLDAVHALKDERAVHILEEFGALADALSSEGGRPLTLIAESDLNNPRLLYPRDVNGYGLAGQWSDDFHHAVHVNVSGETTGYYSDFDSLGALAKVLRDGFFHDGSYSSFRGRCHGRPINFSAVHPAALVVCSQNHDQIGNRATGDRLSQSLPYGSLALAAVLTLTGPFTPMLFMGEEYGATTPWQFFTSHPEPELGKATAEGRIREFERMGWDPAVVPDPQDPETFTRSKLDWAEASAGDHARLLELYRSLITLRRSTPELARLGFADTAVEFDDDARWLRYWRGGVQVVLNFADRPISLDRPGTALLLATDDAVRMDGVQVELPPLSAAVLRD
# Description: An aqueous solution containing 20%, d.s.b., of one of the above 5 non-reducing saccharide preparations, namely α-glycosyltrehalose preparations, was prepared, followed by mixing it with 2 units/g substrate, d.s.b., of the purified trehalose-releasing enzyme obtained in Experiment 15, and subjecting the resultant to an enzymatic reaction at 40° C. and pH 7.0 for 48 hours. The resultant each reaction mixture was desalted, and analyzed for saccharide composition on HPLC using "WAKOBEADS WB-T-330 column", a column of Wako Pure Chemical Industries Ltd., Tokyo, Japan. As a control, a fresh preparation of the same trehalose-releasing enzyme was allowed to act on maltotriose, maltotetraose, maltopentaose, maltohexaose or maltoheptaose, and the resultant each reaction mixture was analyzed for saccharide composition on HPLC.
# β-amylase = test: Hydrolysis by β-amylase; type: biochemical
# [4] = Maillard reaction with glycine, absorbance at 480 nm; type: physicochemical; conditions: for Coloration degree (480 nm): one % glycine, 10% saccharide, pH 7.0, 100°C., 90 min, 1-cm cell
# Description: A solution, containing one % glycine and 10% of a saccharide preparation PI, P II, P III, P IV or P V in Experiment 4 and 50 mM phosphate buffer (pH 7.0), was kept at 100° C. for 90 min, followed by cooling the resultant solution, and determining for absorbance at a wave length of 480 nm in a 1-cm cell. As a control, maltotriose, maltotetraose, maltopentaose, maltohexaose and maltoheptaose, as a material for the saccharide preparations, were similarly treated as above, and measured for absorbance at a wave length of 480 nm.
# A solution, containing one % of glycine, 10% of a high-purity trehalose preparation with a purity of 99.5%, d.s.b., obtained by the method in Experiment 17, and 50 mM phosphate buffer (pH 7.0), was kept at 100° C. for 90 min, followed by cooling the resultant solution and determining the absorbance at a wave length of 480 nm in a 1-cm cell. As a control, glucose and maltose were similarly treated as above, and the resultants were determined for absorbance at a wave length of 480 nm.
# [5] = Utilization test in vivo, oral administration to healthy male volunteers; design: species or system human; conditions: 30 g oral
# Description: In accordance with the method as reported by H. Atsuji et al. in "Rinsho-Eiyo", Vol.41, No.2, pp.200-208 (1972), 30 g of a high-purity trehalose preparation with a purity of 99.5%, d.s.b., obtained by the method in Experiment 17 was dissolved in water into a 20 w/v % aqueous solution which was then orally administered to 6 healthy male volunteers. The volunteers were collected their blood at a prescribed time interval, and each collected blood was assayed for blood sugar- and insulin-levels. As a control Glucose was used.
# [6] = system: trehalose derived from pig kidney; test: Hydrolysis of trehalose by enzyme derived from pig kidney; type: biochemical; conditions: pH 5.7, 37°C., 18 hours (Experiment 7)
# Description: To purify trehalose in each reaction mixture, it was subjected to column chromatography using a column packed with "XT-1016", a strong-acid cation exchange resin in Na^+ -form commercialized by Tokyo Organic Chemical Industries, Ltd., Tokyo, Japan, followed by recovering fractions containing 97% or more of trehalose. The fractions were pooled and concentrated into an about 65% solution which was then allowed to stand at 25° C. for 2 days to crystallize trehalose into hydrous crystalline trehalose, followed by separating and drying it in vacuo to obtain a high-purity trehalose preparation with a purity of 99% or more, d.s.b. The yields of trehalose from glucosyltrehalose, maltosyltrehalose, maltotriosyltrehalose, maltotetraosyltrehalose and maltopentaosyltrehalose used as a substrate were respectively 9.5%, 14.9%, 16.0%, 18.5% and 17.7%, d.s.b. The high-purity trehalose preparations and a commercially available trehalose specimen as a standard were studied for melting point, heat of fusion, specific rotation, infrared absorption spectrum, powdery X-ray diffraction pattern, and readiness of hydrolysis by a […] derived from pig kidney, commercialized by Sigma Chemical Co., St. Louise, USA.
# [7] = one unit glucoamylase, pH 4.5, 40°C., 6 hours
structure (smiles),measurement,setting,value
"OC[C@H]1O[C@H](O[C@H]2O[C@H](CO)[C@@H](O[C@H]3O[C@H](CO)[C@@H](O[C@H]4O[C@H](CO)[C@@H](O[C@H]5O[C@H](CO)[C@@H](O[C@H]6O[C@H](CO)[C@@H](O[C@H]7O[C@H](CO)[C@@H](O)[C@H](O)[C@H]7O)[C@H](O)[C@H]6O)[C@H](O)[C@H]5O)[C@H](O)[C@H]4O)[C@H](O)[C@H]3O)[C@H](O)[C@H]2O)[C@H](O)[C@@H](O)[C@@H]1O [P V, α-maltopentaosyltrehalose]",Hydrolysis by glucoamylase,glucoamylase,hydrolyzed into 5 glucose molecules and one trehalose molecule
same,Glucose,glucoamylase; [7],72.9%
same,Molecular ratio (Glucose/Trehalose),glucoamylase; [7],5.11
same,Trehalose,glucoamylase; [7],27.1%
same,LD50,in vivo,≥ 50000 mg/kg
same,Mortality,mice,no mouse died
same,DE (reducing power),[1],0.23
same,Saccharide composition of hydrolysate by rat intestinal acetone powder: Glucose,[2],73.4%
same,Saccharide composition of hydrolysate by rat intestinal acetone powder: Other saccharides,[2],0.1%
same,Saccharide composition of hydrolysate by rat intestinal acetone powder: Trehalose,[2],26.5%
same,Saccharide composition of hydrolysate by α-glucosidase: Glucose,α-glucosidase,71.4%
same,Saccharide composition of hydrolysate by α-glucosidase: Other saccharides,α-glucosidase,0.3%
same,Saccharide composition of hydrolysate by α-glucosidase: Trehalose,α-glucosidase,28.3%
same,Saccharide composition of hydrolysate by α-amylase: G1 (glucose),α-amylase,1.0
same,Saccharide composition of hydrolysate by α-amylase: G2 (maltose),α-amylase,8.6
same,Saccharide composition of hydrolysate by α-amylase: G3 (maltotriose),α-amylase,35.3
same,Saccharide composition of hydrolysate by α-amylase: P I,α-amylase,10.2
same,Saccharide composition of hydrolysate by α-amylase: P II,α-amylase,44.9
same,"Percentage of reducing saccharide released (glucose, maltose, maltotriose, maltotetraose or maltopentaose)",[3],70.6%
same,Percentage of trehalose released,[3],29.1%
same,Hydrolysis by β-amylase,β-amylase,2 maltose molecules and one P I molecule
same,Coloration degree relative to corresponding material maltooligosaccharides,[4],3-6%
same,Coloration degree (480 nm),[4],0.015
"OC[C@H]1O[C@H](O[C@H]2O[C@H](CO)[C@@H](O)[C@H](O)[C@H]2O)[C@H](O)[C@@H](O)[C@@H]1O [Trehalose, α,α-trehalose]",Time of maximum blood sugar level,[5]; 20 w/v % aqueous solution,0.5 to 1 h
same,Time of maximum insulin level,[5]; 20 w/v % aqueous solution,0.5 to 1 h
same,Utilization by the body,[5]; control glucose,"readily assimilated, absorbed, metabolized and utilized by the body as an energy source"
same,Coloration degree relative to glucose or maltose,[4],0.4-0.6%
same,Maillard reaction,[4],substantially free from the maillard reaction
same,Coloration degree (480 nm),[4],0.006
same,Hydrolysis to glucose by pig kidney enzyme,[6],hydrolyzed by trehalose into glucose molecules; also recorded: decomposed into glucose molecules
